Holding throughout (assay): inhibition of tumour cell growth, NCI panel, 48 h
Experiment [1] deals with OVCAR-4 ovarian.
The test system of experiment [2] is HCT-116 colon.
Experiment [3] concerns EKVX NSCLC.
Experiment [4] deals with SR leukemia.
The subject of experiment [5] is CCRF-CEM leukemia.
Experiment [6] concerns OVCAR-3 ovarian.
Experiment [7] concerns A498 renal.
Experiment [8] relates to UACC-257 melanoma.
Experiment [9] concerns SK-MEL-5 melanoma.
For experiment [10], the system named is OVCAR-5 ovarian.

Data on 24 compounds can be found in PubChem BioAssay (NCI).

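Exposure lasted 48 hours, with cells grown in 96-well plates and compounds tested at five concentrations. TGI marks complete inhibition of growth.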 Bounds are passed on as bounds.

With `Cc1cc(S(N)(=O)=O)c(SCc2nc(N)nc(N(C)C)n2)cc1Cl`, the TGI in [1], in experiment [2], in experiment [3], in [4], in [5] and in experiment [6] was more than 10 µM in each case. The TGI in experiment [7], in experiment [8], in experiment [9] and in [10] was more than 10 µM each time.

As to `CC(=O)Nc1ccc(Nc2cc(=O)n(C)c(=O)[nH]2)cc1`, the TGI in experiment [1], in experiment [2], in experiment [3], in experiment [4], in experiment [5] and in experiment [6] was more than 100 µM each time. Moreover, the TGI in experiment [7], in [8], in experiment [9] and in experiment [10] was more than 100 µM each time.

For the compound `CC(CC(=O)CO[C@H]1[C@H](O)[C@@H](O)[C@@H](O)[C@@H]2NC(=O)c3c(cc4c(c3O)OCO4)[C@H]21)OC1OC(CO)C(O)C(O)C1O` (stereo not given in full), the TGI is 1.27 µM in experiment [1]; 1.67 µM in [2]; 3.46 µM in experiment [3]; 2.22 µM in experiment [4]; 0.582 µM in experiment [5]; 2.65 µM in [6]. Moreover, the TGI in experiment [7] worked out at 4.39 µM; in experiment [8] it was 6.19 µM; in [9] it was 1.48 µM; in experiment [10] it was 5.7 µM.

Turning to `CN(C)CCN1C(=O)CC[C@@]2(C)C1=CC[C@@H]1[C@@H]2CC[C@@]2(C)[C@H]1CC[C@]2(C)O`, the TGI in experiment [1], in [2], in experiment [3], in [4], in experiment [5] and in experiment [6] was more than 100 µM throughout. For the same compound, the TGI in experiment [7], in [8], in experiment [9] and in [10] was more than 100 µM each time.

Regarding `O=[N+]([O-])c1ccc(Cl)cc1-n1nc(-c2ccccc2)cc1-c1ccccc1`, the TGI in experiment [1], in experiment [2], in experiment [3], in experiment [4], in experiment [5] and in [6] was more than 100 µM each time. The TGI in [7], in experiment [8], in [9] and in [10] was more than 100 µM each time.

In the case of `COC(=O)C1Cc2ccc(C)cc2C1=O` (stereo not given), the TGI in experiment [1], in experiment [2], in experiment [3], in experiment [4], in [5] and in experiment [6] was more than 100 µM each time. Besides, the TGI in experiment [7], in [8], in experiment [9] and in [10] was more than 100 µM throughout.

On to `CC(=O)OC1/C(=C/c2ccc([N+](=O)[O-])cc2)C[C@H]2[C@@H]3CC=C4C[C@@H](OC(C)=O)CC[C@]4(C)[C@H]3CC[C@]12C` (stereo not given in full), for which the TGI in [1] is more than 100 µM; in [2], more than 100 µM; in [3] it was more than 100 µM; in [4], more than 20.7 µM; in [5], more than 64.8 µM; in [6], more than 100 µM. Besides, the TGI in experiment [7] was more than 96.2 µM; in [8] it was more than 100 µM; in experiment [9] it was more than 100 µM; in experiment [10], more than 100 µM.

Take `CN(C)CCOc1ccc(I)cc1Cc1ccccc1`: the TGI in experiment [1] is 24.6 µM; in experiment [2], 22.4 µM; in experiment [3] it was 28.8 µM; in experiment [4] it was 7.81 µM; in experiment [5] it was 18.5 µM; in experiment [6], 26.7 µM. Further, the TGI in experiment [7] is 27.1 µM; in experiment [8], 29.2 µM; in experiment [9] it was 14.2 µM; in experiment [10], 29.7 µM.

In the case of `COC(=O)[C@@H]1C=C[C@@H](C#N)n2c(=O)n(-c3ccccc3)c(=O)n21`, the TGI in experiment [1] is more than 100 µM; in experiment [2], more than 100 µM; in [3], more than 100 µM; in experiment [4], 47.4 µM; in experiment [5], 51.3 µM; in experiment [6], 58.9 µM. In addition, the TGI in experiment [7], in [8], in [9] and in experiment [10] was more than 100 µM each time.

Turning to `CN1CCN(c2nc3ccccc3nc2C(=O)c2ccc(Cl)cc2)CC1`, the TGI in [1], in experiment [2], in experiment [3], in [4], in experiment [5] and in experiment [6] was more than 100 µM throughout. In addition, the TGI is more than 100 µM in experiment [7], more than 100 µM in experiment [8], 52.7 µM in experiment [9] and more than 100 µM in experiment [10].

For `O/N=c1/ccn(O)c2ccccc12`, the TGI in experiment [1] was determined as 4.43 µM; in experiment [2], 11.3 µM; in experiment [3], 11.2 µM; in experiment [4] it was 55.8 µM; in [5], 3.34 µM; in [6], 6.59 µM. The TGI in experiment [7] turned out to be 1.75 µM; in experiment [8] it was 21 µM; in experiment [9] it was 2.77 µM; in experiment [10] it was 14.7 µM.

Consider `Cn1c(=O)n2n(c1=O)Cc1cccc3cccc(c13)C2`, for which the TGI in experiment [1], in experiment [2], in [3], in experiment [4], in [5] and in experiment [6] was more than 100 µM each time. Further, the TGI in [7], in [8], in [9] and in experiment [10] was more than 100 µM each time.

With `CSc1c(C(=O)Nc2ccc(C)cc2)c(N)nn1-c1ccccc1`, the TGI in [1], in experiment [2], in experiment [3], in [4], in experiment [5] and in experiment [6] was more than 100 µM throughout. Further, the TGI in [7] was 75.1 µM; in experiment [8] it was more than 100 µM; in experiment [9] it was more than 100 µM; in [10], more than 100 µM.

`CC(=O)OCCC1c2ccccc2-n2nc(-c3ccccc3)c(O)c21` (stereo not given): the TGI in experiment [1] amounted to 40.5 µM; in experiment [2], 30.4 µM; in experiment [3], 36 µM; in experiment [4], 38.7 µM; in [5], 50 µM; in [6], 49.3 µM. The TGI in experiment [7] was 36.4 µM; in [8], 32.5 µM; in experiment [9], 33 µM; in [10], 38.7 µM.

Take `CC12CC3CC/C(=N\O)C(C1)C3(N1CCOCC1)C/C2=N/O` (stereo not given): the TGI in [1], in [2], in experiment [3], in experiment [4], in [5] and in experiment [6] was more than 100 µM throughout. Also, the TGI in experiment [7], in experiment [8], in [9] and in experiment [10] was more than 100 µM throughout.

As to `COc1ncnc2c1cnn2Cc1cn(COCC(O)CO)nn1` (stereo not given), the TGI in experiment [1], in [2], in experiment [3], in experiment [4], in experiment [5] and in experiment [6] was more than 100 µM throughout. Further, the TGI in experiment [7], in experiment [8], in experiment [9] and in [10] was more than 100 µM throughout.

Take `COc1cc2c(cc1OC)C1Cc3ccccc3CCN1CC2` (stereo not given): the TGI in [1], in experiment [2], in experiment [3], in experiment [4], in experiment [5] and in [6] was more than 100 µM in each case. Besides, the TGI in [7], in experiment [8], in experiment [9] and in experiment [10] was more than 100 µM each time.

With `O=C(O)C(Cc1ccc2c(c1)CCC2)(Cc1ccc2c(c1)CCC2)C(=O)O`, the TGI in experiment [1], in experiment [2], in [3], in experiment [4], in experiment [5] and in experiment [6] was more than 100 µM throughout. The TGI in [7], in [8], in experiment [9] and in experiment [10] was more than 100 µM throughout.

In the case of `COC(=O)c1ccc2c(c1)CC1(C2)Cc2cc3c(c(C(=O)OC)c2C1)CCCC3` (stereo not given), the TGI in [1], in experiment [2], in experiment [3], in experiment [4], in [5] and in experiment [6] was more than 100 µM each time. In addition, the TGI in experiment [7] is more than 100 µM; in [8], more than 100 µM; in experiment [9] it was 42 µM; in [10] it was more than 100 µM.

As to `Cc1ccc(-c2sc(-c3ccc(C)cc3)c3c2C2CCC3C2)cc1`, the TGI in experiment [1], in [2], in experiment [3], in experiment [4], in [5] and in experiment [6] was more than 50 µM in each case. The TGI in experiment [7], in [8], in experiment [9] and in experiment [10] was more than 50 µM in each case.

In the case of `O=C(c1ccc(Cl)cc1Cl)N(Cc1cccnc1)C(=S)N(Cc1cccnc1)C(=O)c1ccc(Cl)cc1Cl`, the TGI in [1] is 7.99 µM; in experiment [2], 6.19 µM; in experiment [3] it was 30.2 µM; in experiment [4], more than 100 µM; in experiment [5], more than 100 µM; in [6], 10.1 µM. The TGI in experiment [7] stood at 24.4 µM; in experiment [8], 23.5 µM; in experiment [9], 11.9 µM; in experiment [10], 23.2 µM.

`ClC(Cl)(Cl)C1CCOC1n1nc2ccccc2n1` (stereo not given): the TGI in experiment [1], in [2], in [3], in experiment [4], in experiment [5] and in experiment [6] was more than 100 µM each time. For the same compound, the TGI in [7], in experiment [8], in experiment [9] and in [10] was more than 100 µM throughout.

Turning to `Nc1nc(Cl)c(C=O)c(NCC2(CO)CC(CCc3ccccc3)C2)n1` (stereo not given), the TGI in [1] was 4.21 µM; in [2] it was 27.3 µM; in experiment [3], 14.1 µM; in [4] it was 4.15 µM; in experiment [5], 31.8 µM; in experiment [6], 24.4 µM. In addition, the TGI in [7] came out at 42.1 µM; in experiment [8], 21.3 µM; in experiment [9], 20.3 µM; in experiment [10], 33.3 µM.

`COC(=O)C1Cc2c([nH]c3ccccc23)C(c2cccc(O)c2)N1` (stereo not given): the TGI in experiment [1] is more than 100 µM; in [2], more than 100 µM; in experiment [3], more than 100 µM; in experiment [4], 76.1 µM; in experiment [5] it was 43.2 µM; in experiment [6], more than 100 µM. Also, the TGI in experiment [7] was more than 100 µM; in experiment [8], more than 100 µM; in experiment [9], more than 100 µM; in experiment [10] it was 82.9 µM.
